Converted amounts (≈) assume the structure as drawn. Where two headings read alike, the source gives them in different places.
What was measured:
Format in all cases: cell-based
Proteus vulgaris OXK US = assay: MIC against bacteria (Table I), strain (1); details: (1) Proteus vulgaris OXK US
Source text: (§1) Now, for illustrating the excellent pharmacological effects of the compounds of this invention, the values of MIC (γ/ml.) of the compounds against various bacteria are shown in Table 1, in which the compounds of this invention used are shown by example numbers.
(1) Proteus vulgaris OXK US

Shigella sonnei II 37148 = assay: MIC against bacteria (Table I), strain (12); details: II37148
Source text: as §1

Salmonella enteritidis = assay: MIC against bacteria (Table I), strain (10); details: (10) Salmonella enteritidis
Source text: as §1
(10) Salmonella enteritidis

[1] = test system: Bacillus subtilis ATCC 6633; assay: MIC against bacteria (Table I), strain (14)
Source text: as §1
(14) Bacillus subtilis ATCC 6633

[2] = test system: Proteus mirabilis IXM OM-19; assay: MIC against bacteria (Table I), strain (3)
Source text: as §1
(3) Proteus mirabilis IXM OM-19

[3] = test system: Shigella flexneri 2a 1675; assay: MIC against bacteria (Table I), strain (11); details: 2A1675
Source text: as §1

Proteus vulgaris 0X 19US = assay: MIC against bacteria (Table I), strain (2)
Source text: as §1
(2) Proteus vulgaris 0X 19US

[4] = test system: Staphylococcus Shimanishi; assay: MIC against bacteria (Table I), strain (17)
Source text: as §1
(17) Staphylococcus Shimanishi

[5] = test system: Pseudomonas aeruginosa ATCC 8689; assay: MIC against bacteria (Table I), strain (4)
Source text: as §1
(4) Pseudomonas aeruginosa ATCC 8689

Salmonella typhi H901 W = assay: MIC against bacteria (Table I), strain (9)
Source text: as §1
(9) Salmonella typhi H901 W

[6] = test system: Micrococcus flavus ATCC 10240; assay: MIC against bacteria (Table I), strain (15)
Source text: as §1
(15) Micrococcus flavus ATCC 10240

[7] = test system: Staphylococcus aureus 209P; assay: MIC against bacteria (Table I), strain (16)
Source text: as §1
(16) Staphylococcus aureus 209P

Staphylococcus Onuma = assay: MIC against bacteria (Table I), strain (18)
Source text: as §1
(18) Staphylococcus Onuma

[8] = test system: Bacillus megatherium 10778; assay: MIC against bacteria (Table I), strain (13)
Source text: as §1

[9] = test system: Psuedomonas ovalis IMA 1002; assay: MIC against bacteria (Table I), strain (6); details: (6) Psuedomonas ovalis IMA 1002
Source text: as §1
(6) Psuedomonas ovalis IMA 1002

[10] = test system: Escherichia coli kauffmann 0-1; assay: MIC against bacteria (Table I), strain (7)
Source text: as §1
(7) Escherichia coli kauffmann 0-1

[11] = test system: Pseudomonas aeruginosa 99 (Gentamycin resistant); assay: MIC against bacteria (Table I), strain (5); details: (5) Pseudomonas aeruginosa 99 (Gentamycin resistant)
Source text: as §1
(5) Pseudomonas aeruginosa 99 (Gentamycin resistant)

[12] = test system: Klebsiella pneumoniae ATCC 10031; assay: MIC against bacteria (Table I), strain (8); details: (8) Klebsiella pneumoniae ATCC 10031
Source text: as §1
(8) Klebsiella pneumoniae ATCC 10031

[13] = Salmonella enterica, read-out: MIC
[14] = ATCC6633, (14) Bacillus subtilis ATCC 6633, read-out: MIC
[15] = IXMOM19, (3) Proteus mirabilis IXM OM-19, read-out: MIC
[16] = 0X19US, (2) Proteus vulgaris 0X 19US, read-out: MIC
[17] = (17) Staphylococcus Shimanishi, read-out: MIC
[18] = ATCC8689, (4) Pseudomonas aeruginosa ATCC 8689, read-out: MIC
[19] = ATCC10240, (15) Micrococcus flavus ATCC 10240, read-out: MIC
[20] = (16) Staphylococcus aureus 209P, read-out: MIC
[21] = (18) Staphylococcus Onuma, read-out: MIC
[22] = (13) Bacillus megatherium 10778, read-out: MIC
[23] = (12) Shigella sonnei II 37148, read-out: MIC
[24] = (11) Shigella flexneri 2a 1675, read-out: MIC

For `O=C(O)CSc1nnc(SCC2=C(C(=O)O)N3C(=O)[C@@H](NC(=O)[C@H](NC(=O)c4csccc4=O)c4ccccc4)[C@H]3SC2)s1` [Example 10], the MIC (Proteus vulgaris OXK US; read-out: MIC) was under 0.09 µg/mL, the MIC (Shigella sonnei II 37148; Shigella sonnei) was 6.25 µg/mL (≈ 9.03 µM) and the MIC (Salmonella enteritidis; [13]) was 0.19 µg/mL (≈ 0.275 µM). The MIC [1, 14] was 0.19 µg/mL (≈ 0.275 µM), the MIC [2, 15] was 0.39 µg/mL (≈ 0.564 µM) and the MIC ([3]; Shigella flexneri) was 1.56 µg/mL (≈ 2.25 µM). It also gave an MIC (Proteus vulgaris 0X 19US; [16]) of under 0.09 µg/mL, an MIC [4, 17] of 3.13 µg/mL (≈ 4.52 µM) and an MIC [5, 18] of 25 µg/mL (≈ 36.1 µM). It also gave an MIC (Salmonella typhi H901 W; Salmonella enterica, TYPHI) of 1.56 µg/mL (≈ 2.25 µM), an MIC [6, 19] of 3.13 µg/mL (≈ 4.52 µM) and an MIC [7, 20] of 0.39 µg/mL (≈ 0.564 µM). The MIC (Staphylococcus Onuma; [21]) was 3.13 µg/mL (≈ 4.52 µM), the MIC [8, 22] was 0.39 µg/mL (≈ 0.564 µM) and the MIC ([9]; read-out: MIC) was 50 µg/mL (≈ 72.3 µM). The MIC ([10]; Escherichia coli) was 6.25 µg/mL (≈ 9.03 µM), the MIC ([11]; read-out: MIC) was 50 µg/mL (≈ 72.3 µM) and the MIC ([12]; ATCC10031, read-out: MIC) was 3.13 µg/mL (≈ 4.52 µM).
In the case of `O=C(O)C1=C(CSc2nnc(C(=O)O)s2)CS[C@@H]2[C@H](NC(=O)[C@H](NC(=O)c3cnccc3O)c3ccccc3)C(=O)N12` [Example 11, 7-[D-α-(4-hydroxynicoytinoylamido)-α-phenylacetamido]-3-(5-carboxy-1,3,4-thiadiazol-2-yl)thiomethyl-Δ^3-cephem-4-carboxylic acid], the MIC (Proteus vulgaris OXK US; read-out: MIC) was 0.39 µg/mL (≈ 0.62 µM), the MIC (Shigella sonnei II 37148; [23]) was 25 µg/mL (≈ 39.8 µM) and the MIC (Salmonella enteritidis; [13]) was 0.39 µg/mL (≈ 0.62 µM). For the same compound, the MIC [1, 14] was 0.39 µg/mL (≈ 0.62 µM), the MIC [2, 15] was 0.56 µg/mL (≈ 0.891 µM) and the MIC [3, 24] was 6.25 µg/mL (≈ 9.94 µM). It also gave an MIC (Proteus vulgaris 0X 19US; Proteus vulgaris, 0X19US) of 6.25 µg/mL (≈ 9.94 µM), an MIC [4, 17] of 3.13 µg/mL (≈ 4.98 µM) and an MIC ([5]; Pseudomonas aeruginosa, ATCC8689) of 25 µg/mL (≈ 39.8 µM). For the same compound, the MIC (Salmonella typhi H901 W; Salmonella enterica, TYPHI) was 0.78 µg/mL (≈ 1.24 µM), the MIC ([6]; Micrococcus flavus, ATCC10240) was 6.25 µg/mL (≈ 9.94 µM) and the MIC [7, 20] was 0.39 µg/mL (≈ 0.62 µM). It also gave an MIC (Staphylococcus Onuma; Staphylococcus) of 6.25 µg/mL (≈ 9.94 µM), an MIC [8, 22] of 0.39 µg/mL (≈ 0.62 µM) and an MIC ([9]; read-out: MIC) of 12.5 µg/mL (≈ 19.9 µM). The MIC ([10]; Escherichia coli) was 25 µg/mL (≈ 39.8 µM), the MIC ([11]; read-out: MIC) was 12.5 µg/mL (≈ 19.9 µM) and the MIC ([12]; ATCC10031, read-out: MIC) was 3.13 µg/mL (≈ 4.98 µM).
Compound `CSc1ccc2c(=O)c(C(=O)N[C@@H](C(=O)N[C@@H]3C(=O)N4C(C(=O)O)=C(CSc5nnc(SCC(=O)O)s5)CS[C@H]34)c3ccccc3)c[nH]c2c1` [Example 12, 7-[D-α-(7-methylthio-4-quinolon-3-ylcarboxamido)-α-phenylacetamido]-3-(5-carboxymethylthio-1,3,4-thiadiazol-2yl)thiomethyl-Δ^3-cephem-4-carboxylic acid] has an MIC (Proteus vulgaris OXK US; read-out: MIC) of 0.19 µg/mL (≈ 0.246 µM), an MIC (Shigella sonnei II 37148; [23]) of 3.13 µg/mL (≈ 4.06 µM) and an MIC (Salmonella enteritidis; [13]) of 0.19 µg/mL (≈ 0.246 µM). For the same compound, the MIC ([1]; Bacillus subtilis, ATCC6633) was 3.13 µg/mL (≈ 4.06 µM), the MIC [2, 15] was 0.39 µg/mL (≈ 0.506 µM) and the MIC [3, 24] was 1.56 µg/mL (≈ 2.02 µM). The MIC (Proteus vulgaris 0X 19US; [16]) was 0.19 µg/mL (≈ 0.246 µM), the MIC ([4]; Staphylococcus) was 3.13 µg/mL (≈ 4.06 µM) and the MIC [5, 18] was 25 µg/mL (≈ 32.4 µM). For the same compound, the MIC (Salmonella typhi H901 W; Salmonella enterica, TYPHI) was 0.19 µg/mL (≈ 0.246 µM), the MIC ([6]; Micrococcus flavus, ATCC10240) was 3.13 µg/mL (≈ 4.06 µM) and the MIC [7, 20] was 0.78 µg/mL (≈ 1.01 µM). For the same compound, the MIC (Staphylococcus Onuma; [21]) was 6.25 µg/mL (≈ 8.11 µM), the MIC [8, 22] was 0.39 µg/mL (≈ 0.506 µM) and the MIC ([9]; read-out: MIC) was 25 µg/mL (≈ 32.4 µM). It also gave an MIC ([10]; Escherichia coli) of 6.25 µg/mL (≈ 8.11 µM), an MIC ([11]; read-out: MIC) of 12.5 µg/mL (≈ 16.2 µM) and an MIC ([12]; ATCC10031, read-out: MIC) of 0.39 µg/mL (≈ 0.506 µM).
For `Cc1cncc(C(=O)N[C@@H](C(=O)N[C@@H]2C(=O)N3C(C(=O)O)=C(CSc4nnc(SCC(=O)O)s4)CS[C@H]23)c2ccccc2)c1O` [Example 27, 7-[D-α-(4-hydroxy-3-methylpyridin-5-ylcarboxamido)-α-phenylacetamido]-3-(5-carboxymethylthio-1,3,4-thiadiazol-2-yl)thiomethyl-Δ^3-cephem-4-carboxylic acid], the MIC (Proteus vulgaris OXK US; read-out: MIC) was under 0.09 µg/mL, the MIC (Shigella sonnei II 37148; Shigella sonnei) was 3.13 µg/mL (≈ 4.54 µM) and the MIC ([1]; Bacillus subtilis, ATCC6633) was 0.78 µg/mL (≈ 1.13 µM). It also gave an MIC ([2]; Proteus mirabilis, IXMOM19) of 0.78 µg/mL (≈ 1.13 µM), an MIC ([3]; Shigella flexneri) of 0.78 µg/mL (≈ 1.13 µM) and an MIC (Proteus vulgaris 0X 19US; Proteus vulgaris, 0X19US) of 0.78 µg/mL (≈ 1.13 µM). It also gave an MIC [4, 17] of 6.25 µg/mL (≈ 9.07 µM), an MIC [5, 18] of 12.5 µg/mL (≈ 18.1 µM) and an MIC (Salmonella typhi H901 W; Salmonella enterica, TYPHI) of 0.78 µg/mL (≈ 1.13 µM). The MIC [6, 19] was 6.25 µg/mL (≈ 9.07 µM), the MIC ([7]; Staphylococcus aureus, 209P) was 1.56 µg/mL (≈ 2.26 µM) and the MIC (Staphylococcus Onuma; [21]) was 6.25 µg/mL (≈ 9.07 µM). For the same compound, the MIC ([8]; Bacillus, 10778) was 0.78 µg/mL (≈ 1.13 µM), the MIC ([9]; read-out: MIC) was 25 µg/mL (≈ 36.3 µM) and the MIC ([10]; Escherichia coli) was 3.13 µg/mL (≈ 4.54 µM). The MIC ([11]; read-out: MIC) was 6.25 µg/mL (≈ 9.07 µM) and the MIC ([12]; ATCC10031, read-out: MIC) was 1.56 µg/mL (≈ 2.26 µM).
With `O=C(O)CSc1nnc2sc(SCC3=C(C(=O)O)N4C(=O)C(NC(=O)[C@H](NC(=O)c5cnccc5O)c5ccccc5)[C@H]4SC3)nn12` (stereo partly drawn) [Example 34, 7-[D-α-(4-hydroxynicotinoyl-amido)-α-phenylacetamido]-3-(5-carboxymethylthio-[1,2,4]-triazolo-[3,4-b]-[1,3,4]-thiadiazol-2yl)thiomethyl-Δ^3-cephem-4-carboxylic acid] the MIC (Proteus vulgaris OXK US) was under 0.09 µg/mL, the MIC (Salmonella enteritidis) was 1.56 µg/mL (≈ 2.18 µM) and the MIC ([1]; (14) Bacillus subtilis ATCC 6633) was 1.56 µg/mL (≈ 2.18 µM). It also gave an MIC ([2]; (3) Proteus mirabilis IXM OM-19) of 0.78 µg/mL (≈ 1.09 µM), an MIC (Proteus vulgaris 0X 19US; (2) Proteus vulgaris 0X 19US) of 0.78 µg/mL (≈ 1.09 µM) and an MIC ([4]; (17) Staphylococcus Shimanishi) of 12.5 µg/mL (≈ 17.5 µM). It also gave an MIC ([5]; (4) Pseudomonas aeruginosa ATCC 8689) of 25 µg/mL (≈ 35 µM), an MIC (Salmonella typhi H901 W; (9) Salmonella typhi H901 W) of 6.25 µg/mL (≈ 8.74 µM) and an MIC ([6]; (15) Micrococcus flavus ATCC 10240) of 12.5 µg/mL (≈ 17.5 µM). The MIC ([7]; (16) Staphylococcus aureus 209P) was 3.13 µg/mL (≈ 4.38 µM), the MIC (Staphylococcus Onuma; (18) Staphylococcus Onuma) was 25 µg/mL (≈ 35 µM) and the MIC ([8]; (13) Bacillus megatherium 10778) was 0.78 µg/mL (≈ 1.09 µM). The MIC [9] was 25 µg/mL (≈ 35 µM), the MIC ([10]; (7) Escherichia coli kauffmann 0-1) was 12.5 µg/mL (≈ 17.5 µM) and the MIC [11] was 12.5 µg/mL (≈ 17.5 µM). For the same compound, the MIC [12] was 12.5 µg/mL (≈ 17.5 µM).

— patent US4068074A, “Cephalosporin derivatives having at the 3-position of the cephem ring a heterocyclic thiomethyl group with a carboxy or sulfo group and at the 7-position of the cephem ring an α-heterocylic acylaminophenyl-acetamide group” (priority 1974, dated 1978)
